Reference: patent publication US20060160847A1, “2,4-Dihalogen-6-(c2-c3alkyl)-phenyl substituted tetramic acid derivatives” (priority 2003, published 2006)

Legend:
Assay type in all cases: in vivo
Test plants [1] = experiment: Post-emergence test; conditions: greenhouse
Procedure: To produce a suitable preparation of active compound, 1 part by weight of active compound is mixed with the stated amount of solvent, the stated amount of emulsifier is added and the concentrate is diluted with water to the desired concentration.
Test plants of a height of 5-15 cm are sprayed with the preparation of active compounds such that the particular amounts of active compound desired are applied per unit area. The concentration of the spray liquor is chosen such that the particular amounts of active compound desired are applied in 1000 l of water/ha.
After three weeks, the degree of damage to the plants is rated in % damage in comparison to the development of the untreated control.
0%=no effect (like untreated control)

Test plants [2] = experiment: Pre-emergence test; conditions: greenhouse
Procedure: Pre-Emergence Test [[[…]]] To produce a suitable preparation of active compound, 1 part by weight of active compound is mixed with the stated amount of solvent, the stated amount of emulsifier is added and the concentrate is diluted with water to the desired concentration. Seeds of the test plants are sown in normal soil. After about 24 hours, the soil is sprayed with the preparation of active compound such that the particular amounts of active compound desired are applied per unit area. The concentration of the spray liquor is chosen such that the particular amounts of active compound desired are applied in 1000 l of water/ha. After three weeks, the degree of damage to the plants is rated in % damage in comparison to the development of the untreated control. The figures denote: 0%=no effect (like untreated control) 100%=total destruction

[3] = test system: green peach aphid (Myzus persicae); experiment: Myzus test; conditions: infested cabbage leaves dipped
Procedure: (§1) Myzus Test [table] To produce a suitable preparation of active compound, 1 part by weight of active compound is mixed with the stated amounts of solvent and emulsifier, and the concentrate is diluted with emulsifier-containing water to the desired concentration. Cabbage leaves (Brassica oleracea) which are heavily infested by the green peach aphid (Myzus persicae) are treated by being dipped into the preparation of active compound of the desired concentration. After the desired period of time, the kill in % is determined. 100% means that all aphids have been killed; 0% means that none of the aphids have been killed.

[4] = test system: green rice leaf hopper (Nephotettix cincticeps); experiment: Nephotettix test; conditions: rice seedlings dipped
Procedure: (§2) To produce a suitable preparation of active compound, 1 part by weight of active compound is mixed with the stated amounts of solvent and emulsifier, and the concentrate is diluted with emulsifier-containing water to the desired concentration.
Rice seedlings (Oryza satina) are treated by being dipped into the preparation of active compound of the desired concentration and are populated wraith the green rice leaf hopper (Nephotettix cincticeps) while the leafs are still moist.
After the desired period of time, the kill in % is determined. 100% means that all leaf hoppers have been killed; 0% means that none of the leaf hoppers have been killed.

[5] = test system: larvae of the mustard beetle (Phaedon cochleariae); experiment: Phaedon larvae test; conditions: 100 ppm active compound, Phaedon cochleariae larvae on dipped cabbage leaves
Procedure: Phaedon Larvae Test [[[…]]] To produce a suitable preparation of active compound, 1 part by weight of active compound is mixed with the stated amounts of solvent and emulsifier, and the concentrate is diluted with emulsifier-containing water to the desired concentration. Cabbage leaves (Brassica oleracea) are treated by being dipped into the preparation of active compound of the desired concentration and are populated with larvae of the mustard beetle (Phaedon cochleariae) while the leaves are still moist. After the desired period of time, the kill in % is determined. 100% means that all beetle larvae have been killed; 0% means that none of the beetle larvae have been killed.

[6] = test system: white fly (Bemisia tabaci) eggs, larvae and puparia; experiment: Bemisia test; conditions: active compound concentration 40 ppm, infested cotton plants sprayed
Procedure: Bemisia Test [table] To produce a suitable preparation of active compound, 1 part by weight of active compound is mixed with the stated amounts of solvent and emulsifier, and the concentrate is diluted with water to the desired concentration. Cotton plants (Gossypium hirsutum) which are infested by white fly (Bemisia tabaci) eggs, larvae and puparia are sprayed with the preparation of active compound of the desired concentration. After the desired period of time, the kill in % is determined. 100% means that all animals have been killed; 0% means that none of the animals have been killed.

[7] = test system: greenhouse red spider mite (Tetranychus urticae); experiment: Tetranychus test (OP-resistant/dip treatment); conditions: 1.6 ppm active compound, Tetranychus urticae on dipped bean plants
Procedure: Tetranychus Test (OP-Resistant/Dip Treatment)
as §2
Bean plants (Phaseolus vulgaris) which are heavily infested by all stages of the greenhouse red spider mite (Tetranychus urticae) are dipped into a preparation of active compound of the desired concentration.
After the desired period of time, the effect in % is determined. 100% means that all spider mites have been killed; 0% means that none of the spider mites have been killed.

[8] = test system: cotton aphids (Aphis gossypii); experiment: Aphis gossypii test; conditions: active compound concentration 200 ppm, infested cotton leaves dipped
Procedure: as §1, with “Aphis Gossypii” for “Myzus”, “Cotton” for “Cabbage”, “(Gossypium hirsutuni)” for “(Brassica oleracea)”, “cotton aphids (Aphis gossypii)” for “the green peach aphid (Myzus persicae)”

[9] = active compound concentration 8 ppm

## CCc1cc(Cl)cc(Cl)c1C1=C(O)C2(CCC(OC)CC2)NC1=O (single isomer, unassigned) [Ex. I-a-3]
Test plants [1]; 250 g of a.i./ha
  % damage, Alopecurus: 100%
  % damage, Avena fatua: 100%
  % damage, Sinapis: 80%
Test plants [2]; 30 g of a.i./ha
  % damage, Alopecurus: 100%
  % damage, Avena fatua: 70%
  % damage, Digitaria: 100%
  % damage, Lolium: 100%
Test plants [2]; 30 g of a.i./ha, Setaria
  % damage, Setaria: 100%
Test plants [2]; 30 g of a.i./ha, cotton
  % damage, cotton: 0%
Test plants [2]; 30 g of a.i./ha, sugar beet
  % damage, sugar beet: 0%
[3]; [9]
  Kill rate in % after 6^d: 85%

## CCOCC(=O)OC1=C(c2c(Cl)cc(Br)cc2CC)C(=O)NC12CCC(C)CC2 (single isomer, unassigned) [Ex. I-b-3]
[4]; active compound concentration 0.1 ppm
  Kill rate in % after 6^d: 40%
[5]
  Kill rate in % after 7d: 100%

## CCc1cc(Cl)cc(Br)c1C1=C(O)C2(CCC(OC)CC2)NC1=O (single isomer, unassigned) [Ex. I-a-10]
Test plants [1]; 30 g of a.i./ha
  % damage, Alopecurus: 95%
  % damage, Avena fatua: 95%
  % damage, Bromus: 90%
  % damage, Lolium: 95%
  % damage, Setaria: 100%
  % damage, sugar beet: 0%
Test plants [1]; 30 g of a.i./ha, Digitaria
  % damage, Digitaria: 100%
Test plants [2]; 125 g of a.i./ha
  % damage, Alopecurus: 100%
  % damage, Avena fatua: 90%
  % damage, Bromus: 90%
  % damage, Digitaria: 100%
  % damage, soybean: 0%

## CCc1cc(Br)cc(Cl)c1C1=C(O)C2(CCC(C)CC2)NC1=O (single isomer, unassigned) [Ex. I-a-6]
Test plants [1]; 60 g of a.i./ha
  % damage, Abutilon: 70%
  % damage, Echinochloa: 95%
  % damage, Lolium: 90%
  % damage, Setaria: 100%
  % damage, Sorghum: 90%
Test plants [2]; 60 g of a.i./ha
  % damage, Avena fatua: 90%
  % damage, Echinochloa: 100%
  % damage, Lolium: 95%
  % damage, soybean: 0%
Test plants [2]; 60 g of a.i./ha, Veronica
  % damage, Veronica: 100%
Test plants [2]; 60 g of a.i./ha, wheat
  % damage, wheat: 0%

## CCc1cc(Br)cc(Cl)c1C1=C(OC(=O)C(C)C)C2(CCC(C)CC2)NC1=O (single isomer, unassigned) [Ex. I-b-2]
[6]
  Kill rate in % after 10^d: 100%
Test plants [2]; 30 g of a.i./ha
  % damage, Digitaria: 70%
  % damage, Echinochloa: 70%
  % damage, Lolium: 95%
  % damage, soybean: 0%
Test plants [2]; 30 g of a.i./ha, corn
  % damage, corn: 0%

## CCc1cc(Br)cc(Cl)c1C1=C(O)C2(CCC(OC)CC2)NC1=O (single isomer, unassigned) [Ex. I-a-7]
Test plants [1]; 250 g of a.i./ha
  % damage, Abutilon: 80%
  % damage, sugar beet: 0%
Test plants [1]; 250 g of a.i./ha, Amaranthus
  % damage, Amaranthus: 70%
Test plants [1]; 250 g of a.i./ha, Cyperus
  % damage, Cyperus: 80%
Test plants [2]; 125 g of a.i./ha
  % damage, Avena fatua: 95%
  % damage, Bromus: 100%
  % damage, Echinochloa: 100%
Test plants [2]; 125 g of a.i./ha, Matricaria
  % damage, Matricaria: 80%
[3]; active compound concentration 1.6 ppm
  Kill rate in % after 6^d: 65%

## CCc1cc(Cl)cc(Br)c1C1=C(O)C(C)(C)NC1=O [Ex. I-a-11]
[4]; active compound concentration 10 ppm
  Kill rate in % after 6^d: 100%
Test plants [1]; 250 g of a.i./ha
  % damage, Alopecurus: 100%
  % damage, Setaria: 100%
  % damage, sugar beet: 0%
[7]
  Kill rate in % after 14d: 80%

## CCc1cc(Cl)cc(Cl)c1C1=C(O)C2(CCC(C)CC2)NC1=O (single isomer, unassigned) [Ex. I-a-2]
Test plants [1]; 125 g of a.i./ha
  % damage, Bromus: 90%
  % damage, Echinochloa: 100%
  % damage, Lolium: 100%
  % damage, Sorghum: 100%
Test plants [1]; 125 g of a.i./ha, cotton
  % damage, cotton: 0%
[8]
  Kill rate in % after 6^d: 90%
[3]; [9]
  Kill rate in % after 6^d: 95%

## CCc1cc(Cl)cc(Cl)c1C1=C(O)C2(CCOCC2)NC1=O [Ex. I-a-5]
Test plants [1]; 250 g of a.i./ha
  % damage, Alopecurus: 95%
  % damage, Avena fatua: 100%
  % damage, Setaria: 100%
  % damage, Sinapis: 70%
